Experimental data taken from patent publication US10851116B2, “Bicyclic amines as novel JAK kinase inhibitors” (LEO Pharma A/S, priority 2017, dated 2020).

Assays:
Type in all cases: biochemical
[1] = target: JAK1 (Homo sapiens (Human), UniProt P23458); assay: JAK kinase assay (HTRF), JAK1; conditions: catalytic domain (aa 850-1154), GST-tag, ATP at Km (7 μM)
Method: (§1) Human baculovirus-expressed JAK1, 2, 3 and TYK2 were purchased from Carna Biosciences, Inc. All four purified enzymes contain only the catalytic domain. JAK1 (aa 850-1154) and TYK2 (aa 871-1187) are expressed with an N-terminally fused GST-tag, and JAK2 and JAK3 with an N-terminally fused His-tag.
(§2) Inhibition of phosphorylation of a synthetic peptide was measured in an HTRF-based assay using the TK substrate-Biotin from the Cisbio HTRFKinEASE TK kit. First, 2 μl of TK solution (TK substrate-biotin in kinase buffer [1× enzymatic buffer from HTRFKinEASE TK kit, 1 mM DTT]) is added to a plate containing 1 μl prediluted compound (final assay concentration DMSO: 0.75%). Then, 5 μl kinase-ATP mix (prepared in kinase buffer) is added to the wells and the plates are incubated at RT for 20-30 min. For all four kinases a concentration of ATP that corresponded to the Km for ATP was used. The final concentrations of buffers, substrate, kinase and ATP were: JAK1: 50 mM Hepes buffer pH 7.0, 0.01% BSA, 10 mM MgCl2, 1 mM DTT, 7 μM ATP, 50 nM SEB, 1 μM TK Substrate-Biotin and 5 ng JAK1; JAK2: 50 mM Hepes buffer pH 7.0, 0.01% BSA, 5 mM MgCl2, 1 mM DTT, 4 μM ATP, 1 μM TK Substrate-Biotin and 0.1 ng JAK2; JAK3: 50 mM Hepes buffer pH 7.0, 0.01% BSA, 5 mM MgCl2, 1 mM DTT, 2 μM ATP, 1 μM TK Substrate-Biotin and 0.3 ng JAK3; TYK2: 50 mM Hepes buffer pH 7.0, 0.01% BSA, 5 mM MgCl2, 1 mM DTT, 13 μM ATP, 50 nM SEB, 1 μM TK Substrate-Biotin and 0.8 ng TYK2. Thereafter, the kinase reaction is stopped by adding 4 μl detection mix (final concentrations: 50 mM Hepes buffer pH 7.0, 0.01% BSA, 0.8 M KF, 20 mM EDTA, 42 nM Streptavidin-XL665 and 1:400 STK Ab Cryptate) and the plates are incubated overnight in the dark. The HTRF signal is read using an Envision plate reader.

[2] = target: JAK2 (Homo sapiens (Human), UniProt O60674); assay: JAK kinase assay (HTRF), JAK2; conditions: catalytic domain, His-tag, ATP at Km (4 μM)
JAK2, sequence (O60674 849-1124): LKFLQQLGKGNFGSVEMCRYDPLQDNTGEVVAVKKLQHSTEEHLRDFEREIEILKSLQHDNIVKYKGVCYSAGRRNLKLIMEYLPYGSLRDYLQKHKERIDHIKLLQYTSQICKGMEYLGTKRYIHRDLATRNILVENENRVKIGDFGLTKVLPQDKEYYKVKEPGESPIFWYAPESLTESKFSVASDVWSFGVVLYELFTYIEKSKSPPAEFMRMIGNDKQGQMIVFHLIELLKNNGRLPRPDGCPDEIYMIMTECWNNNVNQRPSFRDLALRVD
Method: as §1, §2

[3] = target: JAK3 (Homo sapiens (Human), UniProt P52333); assay: JAK kinase assay (HTRF), JAK3; conditions: catalytic domain, His-tag, ATP at Km (2 μM)
JAK3, sequence (P52333 822-1111): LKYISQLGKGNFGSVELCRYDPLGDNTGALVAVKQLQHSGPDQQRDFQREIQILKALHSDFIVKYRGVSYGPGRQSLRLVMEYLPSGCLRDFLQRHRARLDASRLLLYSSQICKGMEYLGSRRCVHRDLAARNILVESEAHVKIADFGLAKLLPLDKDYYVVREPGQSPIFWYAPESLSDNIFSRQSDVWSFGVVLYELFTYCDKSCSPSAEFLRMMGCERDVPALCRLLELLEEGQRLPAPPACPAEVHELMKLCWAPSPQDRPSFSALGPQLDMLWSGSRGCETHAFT
Method: as §1, §2

[4] = target: TYK2 (Homo sapiens (Human), UniProt P29597); assay: JAK kinase assay (HTRF), TYK2; conditions: catalytic domain (aa 871-1187), GST-tag, ATP at Km (13 μM)
TYK2, sequence (P29597 871-1187): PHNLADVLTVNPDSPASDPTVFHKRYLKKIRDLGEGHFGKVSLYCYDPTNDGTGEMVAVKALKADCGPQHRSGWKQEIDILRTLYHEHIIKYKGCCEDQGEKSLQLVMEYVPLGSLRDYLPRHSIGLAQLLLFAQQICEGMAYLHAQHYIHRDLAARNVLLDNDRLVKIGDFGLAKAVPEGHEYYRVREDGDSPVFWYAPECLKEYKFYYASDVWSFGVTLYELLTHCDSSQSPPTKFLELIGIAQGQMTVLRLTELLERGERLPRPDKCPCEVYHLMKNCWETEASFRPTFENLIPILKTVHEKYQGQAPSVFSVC
Method: as §1, §2

JAK1, sequence (P23458 850-1154): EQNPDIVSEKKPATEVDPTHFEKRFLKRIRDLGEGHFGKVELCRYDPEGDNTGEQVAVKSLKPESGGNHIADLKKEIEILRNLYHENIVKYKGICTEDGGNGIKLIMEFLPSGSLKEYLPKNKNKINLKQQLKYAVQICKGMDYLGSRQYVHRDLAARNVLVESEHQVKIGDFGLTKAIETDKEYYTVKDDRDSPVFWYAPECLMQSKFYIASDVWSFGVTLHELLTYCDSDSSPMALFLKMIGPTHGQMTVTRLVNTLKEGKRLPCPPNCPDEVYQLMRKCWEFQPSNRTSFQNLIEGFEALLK

Row | Structure (SMILES) | EC50 [1] | EC50 [2] | EC50 [3] | EC50 [4]
1 | C[C@]12CN(c3cnc(C#N)cn3)CC[C@H]1CCN(c1ncnc3[nH]ccc13)C2 (racemic) [Example 4, 5-[(4aR*,8aS*)-8a-methyl-7-(7H-pyrrolo[2,3-d]pyrimidin-4-yl)-3,4,4a,5,6,8-hexahydro-1H-2,7-naphthyridin-2-yl]pyrazine-2-carbonitrile] | 0.004 µM | 0.025 µM | 0.004 µM | 0.148 µM
2 | C[C@]12CN(c3ccc(C#N)cn3)CC[C@H]1CCN(c1ncnc3[nH]ccc13)C2 (racemic) [Example 5, 6-[(4aR*,8aS*)-8a-methyl-7-(7H-pyrrolo[2,3-d]pyrimidin-4-yl)-3,4,4a,5,6,8-hexahydro-1H-2,7-naphthyridin-2-yl]pyridine-3-carbonitrile] | 0.01 µM | 0.08 µM | 0.007 µM | 0.453 µM
3 | C[C@]12CN(c3ccc(C#N)nn3)CC[C@H]1CCN(c1ncnc3[nH]ccc13)C2 (racemic) [Example 6, 6-[(4aR*,8aS*)-8a-methyl-7-(7H-pyrrolo[2,3-d]pyrimidin-4-yl)-3,4,4a,5,6,8-hexahydro-1H-2,7-naphthyridin-2-yl]pyridazine-3-carbonitrile] | 0.017 µM | 0.064 µM | 0.009 µM | 0.634 µM
4 | C[C@]12CN(c3ncc(C#N)cn3)CC[C@H]1CCN(c1ncnc3[nH]ccc13)C2 (racemic) [Example 7, 2-[(4aR*,8aS*)-8a-methyl-7-(7H-pyrrolo[2,3-d]pyrimidin-4-yl)-3,4,4a,5,6,8-hexahydro-1H-2,7-naphthyridin-2-yl]pyrimidine-5-carbonitrile] | 0.046 µM | 0.14 µM | 0.005 µM | 0.74 µM
5 | C[C@@]12CN(c3ncnc4[nH]ccc34)CC[C@@H]1CCN(S(N)(=O)=O)C2 (racemic) [Example 9, (4aR*,8aS*)-8a-methyl-7-(7H-pyrrolo[2,3-d]pyrimidin-4-yl)-3,4,4a,5,6,8-hexahydro-1H-2,7-naphthyridine-2-sulfonamide] | 0.039 µM | 0.058 µM | 0.008 µM | 0.241 µM
6 | Cc1nc(N2CC[C@H]3CCN(c4ncnc5[nH]ccc45)C[C@@]3(C)C2)ccc1C#N (racemic) [Example 10, 6-[(4aS*,8aR*)-8a-methyl-7-(7H-pyrrolo[2,3-d]pyrimidin-4-yl)-3,4,4a,5,6,8-hexahydro-1H-2,7-naphthyridin-2-yl]-2-methyl-pyridine-3-carbonitrile] | 0.112 µM | 0.469 µM | 0.204 µM | 3.88 µM
7 | Cc1cc(C#N)cnc1N1CC[C@H]2CCN(c3ncnc4[nH]ccc34)C[C@@]2(C)C1 (racemic) [Example 11, 6-[(4aS*,8aR*)-8a-methyl-7-(7H-pyrrolo[2,3-d]pyrimidin-4-yl)-3,4,4a,5,6,8-hexahydro-1H-2,7-naphthyridin-2-yl]-5-methyl-pyridine-3-carbonitrile] | 0.086 µM | 0.38 µM | 0.085 µM | 0.976 µM
8 | C[C@@]12CN(c3ncnc4[nH]ccc34)CC[C@@H]1CCN(S(C)(=O)=O)C2 (racemic) [Example 13, (4aR*,8aS*)-8a-methyl-2-methylsulfonyl-7-(7H-pyrrolo[2,3-d]pyrimidin-4-yl)-3,4,4a,5,6,8-hexahydro-1H-2,7-naphthyridine] | 0.072 µM | 0.09 µM | 0.075 µM | 0.326 µM
9 | C[C@@]12CN(c3ncnc4[nH]ccc34)CC[C@@H]1CN(S(C)(=O)=O)C2 (racemic) [Example 26, 4-[(3aS*,7aS*)-3a-methyl-2-methylsulfonyl-1,3,4,6,7,7a-hexahydropyrrolo[3,4-c]pyridin-5-yl]-7H-pyrrolo[2,3-d]pyrimidine] | 0.093 µM | 0.154 µM | 0.243 µM | 0.898 µM
10 | C[C@@]12CN(c3ncnc4[nH]ccc34)CC[C@@H]1CN(S(N)(=O)=O)C2 (racemic) [Example 27, (3aS*,7aS*)-3a-methyl-5-(7H-pyrrolo[2,3-d]pyrimidin-4-yl)-1,3,4,6,7,7a-hexahydropyrrolo[3,4-c]pyridine-2-sulfonamide] | 0.04 µM | 0.08 µM | 0.054 µM | 0.473 µM
11 | C[C@@]12CN(c3ncnc4[nH]ccc34)CC[C@@H]1CN(S(=O)(=O)NCC#N)C2 (racemic) [Example 30, (3aS*,7aS*)—N-(cyanomethyl)-3a-methyl-5-(7H-pyrrolo[2,3-d]pyrimidin-4-yl)-1,3,4,6,7,7a-hexahydropyrrolo[3,4-c]pyridine-2-sulfonamide] | 0.029 µM | 0.056 µM | 0.091 µM | 0.364 µM
12 | C[C@@]12CN(c3ncnc4[nH]ccc34)CC[C@@H]1CN(S(=O)(=O)CC(F)(F)F)C2 (racemic) [Example 31, 4-[(3aS*,7aS*)-3a-methyl-2-(2,2,2-trifluoroethylsulfonyl)-1,3,4,6,7,7a-hexahydropyrrolo[3,4-c]pyridin-5-yl]-7H-pyrrolo[2,3-d]pyrimidine] | 0.133 µM | 0.455 µM | 0.274 µM | 3.18 µM
13 | C[C@]12CN(C(=O)CC#N)C[C@H]1CCN(c1ncnc3[nH]ccc13)C2 (racemic) [Example 32, 3-[(3aS*,7aS*)-3a-methyl-5-(7H-pyrrolo[2,3-d]pyrimidin-4-yl)-1,3,4,6,7,7a-hexahydropyrrolo[3,4-c]pyridin-2-yl]-3-oxo-propanenitrile] | 0.016 µM | 0.067 µM | 0.162 µM | 0.307 µM
14 | C[C@]12CN(c3ccc(S(C)(=O)=O)cn3)C[C@H]1CCN(c1ncnc3[nH]ccc13)C2 (racemic) [Example 35] | 0.013 µM | 0.131 µM | 0.095 µM | 2.44 µM
15 | C[C@]12CN(c3ncccc3CO)C[C@H]1CCN(c1ncnc3[nH]ccc13)C2 (racemic) [Example 36, [2-[(3aS*,7aS*)-3a-methyl-5-(7H-pyrrolo[2,3-d]pyrimidin-4-yl)-1,3,4,6,7,7a-hexahydropyrrolo[3,4-c]pyridin-2-yl]-3-pyridyl]methanol] | 0.069 µM | 0.12 µM | 0.235 µM | 1.11 µM
16 | C[C@]12CN(c3ncc(Br)cc3CO)C[C@H]1CCN(c1ncnc3[nH]ccc13)C2 (racemic) [Example 37, [2-[(3aS*,7aS*)-3a-methyl-5-(7H-pyrrolo[2,3-d]pyrimidin-4-yl)-1,3,4,6,7,7a-hexahydropyrrolo[3,4-c]pyridin-2-yl]-5-bromo-3-pyridyl]methanol] | 0.012 µM | 0.048 µM | 0.038 µM | 0.611 µM
17 | C[C@]12CN(c3ccc(S(C)(=O)=O)cc3)C[C@H]1CCN(c1ncnc3[nH]ccc13)C2 (racemic) [Example 38, 4-[(3aR*,7aS*)-3a-methyl-2-(4-methylsulfonylphenyl)-1,3,4,6,7,7a-hexahydropyrrolo[3,4-c]pyridin-5-yl]-7H-pyrrolo[2,3-d]pyrimidine] | 0.007 µM | 0.032 µM | 0.071 µM | 0.335 µM
18 | C[C@]12CN(c3ccncn3)C[C@H]1CCN(c1ncnc3[nH]ccc13)C2 (racemic) [Example 39, 4-[(3aR*,7aS*)-3a-methyl-2-pyrimidin-4-yl-1,3,4,6,7,7a-hexahydropyrrolo[3,4-c]pyridin-5-yl]-7H-pyrrolo[2,3-d]pyrimidine] | 0.018 µM | 0.072 µM | 0.199 µM | 0.775 µM
19 | C[C@]12CN(c3ncc(C#N)cn3)C[C@H]1CCN(c1ncnc3[nH]ccc13)C2 (racemic) [Example 41, 2-[(3aS*,7aS*)-3a-methyl-5-(7H-pyrrolo[2,3-d]pyrimidin-4-yl)-1,3,4,6,7,7a-hexahydropyrrolo[3,4-c]pyridin-2-yl]pyrimidine-5-carbonitrile] | 0.049 µM | 0.216 µM | 0.07 µM | 2.04 µM
20 | Cc1cc(C#N)cnc1N1C[C@H]2CCN(c3ncnc4[nH]ccc34)C[C@@]2(C)C1 (racemic) [Example 44] | 0.065 µM | 0.179 µM | 0.099 µM | 2.02 µM
